According to patent publication US12145929B2, “Piperidine derivative and pharmaceutical composition for inhibiting autotaxin comprising same” (NEXTGEN BIOSCIENCE CO., LTD., priority 2021, dated 2024):

Each compound was assayed against human Autotaxin protein (Homo sapiens, UniProt Q13822) (assay: Evaluation of inhibitory activity against human Autotaxin protein (18:1 LysoPC substrate, choline assay kit, absorbance 570 nm)). Details: compound at 500 nM, 2 hours at 37° C.
Assay type: biochemical
Experimental: The solution of each synthesized compound (80 uM, 100% dimethyl sulfoxide) was sequentially diluted 5 times with dimethyl sulfoxide to prepare 6 concentrations. Each concentration of compound was diluted two-fold with 1× test buffer (50 mM Tris-Cl (pH 8.0), 5 mM KCl, 1 mM CaCl2), 1 mM MgCl2, 140 mM NaCl, deionized water, 1 mg/mL BSA), and 1 uL (1.25% dimethyl sulfoxide) of this diluted mixture was dispensed into each well of a 96 well clear round bottom plate. 9 uL of 1× test buffer were added to each well, followed by the addition of 20 uL of 240 nM human Autotaxin protein (buffer: 50 mM Tris-HCl, pH 8.0, with 150 mM sodium chloride and 20% glycerol). 10 uL of sonicated 360 uM 18:1 LysoPC (diluted with 1× test buffer) were added to each well. The reaction was performed for 2 hours in a shaking incubator at 37° C., and a secondary reaction mixture (choline assay kit, KA1662) (65 uL of 1× test buffer: 1 uL of choline oxidase: 1 uL of dye probe) was prepared. 60 uL of the secondary reaction mixture were added to the reaction plate and reacted on a shaker for 30 minutes. Using a SpectraMax iD3 microplate reader, the absorbance was measured at a wavelength of 570 nm. The percentage of inhibition activity (% inhibition) was calculated by the Formula: (1−Absorbancetestgroup/Absorbancecontrol group)×100.

Structure (SMILES) | inhibition (%) at 500 nM | inhibition at 0.5 µM
c1cc2c(cc1CNc1ncc(-c3cc(N4CCC(c5cnn[nH]5)CC4)no3)cn1)OCO2 [Example 46, N-(1,3-benzodioxol-5-ylmethyl)-5-[3-[4-(1H-triazol-5-yl)-1-piperidyl]isoxazol-5-yl]pyrimidin-2-amine] | 1% | –
CS(=O)(=O)c1cccc(CNc2ncc(C3CC(N4CCC(c5cnn[nH]5)CC4)=NO3)cn2)c1 (centres unmarked) [Example 48, 5-(3-(4-(1H-1,2,3-triazol-5-yl)piperidin-1-yl)-4,5-dihydroisoxazol-5-yl)-N-(3-(methylsulfonyl)benzyl)pyrimidin-2-amine] | – | 3.4%
CS(=O)(=O)c1ccc(CNc2ncc(C3CC(N4CCC(c5cnn[nH]5)CC4)=NO3)cn2)cc1 (centres unmarked) [Example 49, 5-(3-(4-(1H-1,2,3-triazol-5-yl)piperidin-1-yl)-4,5-dihydroisoxazol-5-yl)-N-(4-(methylsulfonyl)benzyl)pyrimidin-2-amine] | – | 1.2%
c1cc2c(cc1CNc1ncc(-c3nnc(N4CCC(c5cnn[nH]5)CC4)o3)cn1)OCO2 [Example 55, 5-(5-(4-(1H-1,2,3-triazol-5-yl)piperidin-1-yl)-1,3,4-oxadiazol-2-yl)-N-(benzo[d][1,3]dioxol-5-ylmethyl)pyrimidin-2-amine] | – | 52%
Clc1ccc(CNc2ncc(-c3nnc(N4CCC(c5cnn[nH]5)CC4)o3)cn2)cc1Cl [Example 56, 5-(5-(4-(1H-1,2,3-triazol-5-yl)piperidin-1-yl)-1,3,4-oxadiazol-2-yl)-N-(3,4-dichlorobenzyl)pyrimidin-2-amine] | – | 55.8%
Fc1cc(F)cc(CNc2ncc(-c3nnc(N4CCC(c5cnn[nH]5)CC4)o3)cn2)c1 [Example 57, 5-(5-(4-(1H-1,2,3-triazol-5-yl)piperidin-1-yl)-1,3,4-oxadiazol-2-yl)-N-(3,5-difluorobenzyl)pyrimidin-2-amine] | – | 88.1%
Fc1ccc(CNc2ncc(-c3nnc(N4CCC(c5cnn[nH]5)CC4)o3)cn2)cc1F [Example 58, 5-(5-(4-(1H-1,2,3-triazol-5-yl)piperidin-1-yl)-1,3,4-oxadiazol-2-yl)-N-(3,4-difluorobenzyl)pyrimidin-2-amine] | – | 84%
Brc1cc(Br)cc(CNc2ncc(-c3nnc(N4CCC(c5cnn[nH]5)CC4)o3)cn2)c1 [Example 59, 5-(5-(4-(1H-1,2,3-triazol-5-yl)piperidin-1-yl)-1,3,4-oxadiazol-2-yl)-N-(3,5-dibromobenzyl)pyrimidin-2-amine] | – | 98.5%
Cc1nc(NC2Cc3ccc(Br)cc3C2)ncc1-c1nnc(N2CCC(c3cnn[nH]3)CC2)o1 (centres unmarked) [Example 60, 5-(5-(4-(1H-1,2,3-triazol-5-yl)piperidin-1-yl)-1,3,4-oxadiazol-2-yl)-N-(5-bromo-2,3-dihydro-1H-inden-2-yl)-4-methylpyrimidin-2-amine] | – | 95.3%
c1ccc2c(c1)CC(Nc1ncc(CCCN3CCC(c4c[nH]nn4)CC3)cn1)C2 [Example 62, 5-(3-(4-(1H-1,2,3-triazol-4-yl)piperidin-1-yl)propyl)-N-(2,3-dihydro-1H-inden-2-yl)pyrimidin-2-amine] | – | 70.2%

Further lines, results first:

inhibition (%) at 500 nM | inhibition at 0.5 µM | Structure (SMILES)
40.6% | – | Fc1cc(F)cc(CNc2ncc(C3CC(N4CCC(c5cnn[nH]5)CC4)=NO3)cn2)c1 (centres unmarked) [Example 41, N-[(3,5-difluorophenyl)methyl]-5-[3-[4-(1H-triazol-5-yl)-1-piperidyl]-4,5-dihydroisoxazol-5-yl]pyrimidin-2-amine]
8.6% | – | c1ccc(CNc2ncc(C3CC(N4CCC(c5cnn[nH]5)CC4)=NO3)cn2)cc1 (centres unmarked) [Example 42, N-benzyl-5-[3-[4-(1H-triazol-5-yl)-1-piperidyl]-4,5-dihydroisoxazol-5-yl]pyrimidin-2-amine]
4.6% | – | Fc1ccc(CNc2ncc(C3CC(N4CCC(c5cnn[nH]5)CC4)=NO3)cn2)cc1F (centres unmarked) [Example 43, N-[(3,4-difluorophenyl)methyl]-5-[3-[4-(1H-triazol-5-yl)-1-piperidyl]-4,5-dihydroisoxazol-5-yl]pyrimidin-2-amine]
– | 71.3% | Clc1cc(Cl)cc(CNc2ncc(C3CC(N4CCC(c5cnn[nH]5)CC4)=NO3)cn2)c1 (centres unmarked) [Example 44, 5-(3-(4-(1H-1,2,3-triazol-5-yl)piperidin-1-yl)-4,5-dihydroisoxazol-5-yl)-N-(3,5-dichlorobenzyl)pyrimidin-2-amine]
– | 1.6% | c1cc2c(cc1CNc1ncc(C3CC(N4CCC(c5cnn[nH]5)CC4)=NO3)cn1)OCO2 (centres unmarked) [Example 45, 5-(3-(4-(1H-1,2,3-triazol-5-yl)piperidin-1-yl)-4,5-dihydroisoxazol-5-yl)-N-(benzo[d][1,3]dioxol-5-ylmethyl)pyrimidin-2-amine]
– | 29.2% | Clc1cc(Cl)cc(CCNc2ncc(C3CC(N4CCC(c5cnn[nH]5)CC4)=NO3)cn2)c1 (centres unmarked) [Example 47, 5-(3-(4-(1H-1,2,3-triazol-5-yl)piperidin-1-yl)-4,5-dihydroisoxazol-5-yl)-N-(3,5-dichlorophenethyl)pyrimidin-2-amine]
– | 7% | c1ccc2c(c1)CC(Nc1ncc(C3CC(N4CCC(c5nnn[nH]5)CC4)=NO3)cn1)C2 (centres unmarked) [Example 50, 5-(3-(4-(1H-tetrazol-5-yl)piperidin-1-yl)-4,5-dihydroisoxazol-5-yl)-N-(2,3-dihydro-1H-inden-2-yl)pyrimidin-2-amine]
– | 13.2% | FC(F)c1nnc(C2CCN(C3=NOC(c4cnc(NC5Cc6ccccc6C5)nc4)C3)CC2)o1 (centres unmarked) [Example 51, 5-(3-(4-(5-(Difluoromethyl)-1,3,4-oxadiazol-2-yl)piperidin-1-yl)-4,5-dihydroisoxazol-5-yl)-N-(2,3-dihydro-1H-inden-2-yl)pyrimidin-2-amine]
– | 4.8% | Fc1cc2c(cc1F)CC(Nc1ncc(C3CC(N4CCC(c5nnn[nH]5)CC4)=NO3)cn1)C2 (centres unmarked) [Example 52, 5-(3-(4-(1H-tetrazol-5-yl)piperidin-1-yl)-4,5-dihydroisoxazol-5-yl)-N-(5,6-difluoro-2,3-dihydro-1H-inden-2-yl)pyrimidin-2-amine]
– | 10.2% | Fc1ccc2c(c1)CC(Nc1ncc(C3CC(N4CCC(c5nnc(C(F)(F)F)o5)CC4)=NO3)cn1)C2 (centres unmarked) [Example 53, N-(5-fluoro-2,3-dihydro-1H-inden-2-yl)-5-(3-(4-(5-(trifluoromethyl)-1,3,4-oxadiazol-2-yl)piperidin-1-yl)-4,5-dihydroisoxazol-5-yl)pyrimidin-2-amine]
– | 95.3% | CC1CC(c2cnn[nH]2)CCN1c1nnc(-c2cnc(NC3Cc4cc(F)c(F)cc4C3)nc2)o1 (centres unmarked) [Example 54, N-(5,6-difluoro-2,3-dihydro-1H-inden-2-yl)-5-(5-(2-methyl-4-(1H-1,2,3-triazol-5-yl)piperidin-1-yl)-1,3,4-oxadiazol-2-yl)pyrimidin-2-amine]
– | 70% | Cc1nc(NC2Cc3cc(Br)c(Br)cc3C2)ncc1-c1nnc(N2CCC(c3cnn[nH]3)CC2)o1 [Example 61, 5-(5-(4-(1H-1,2,3-triazol-5-yl)piperidin-1-yl)-1,3,4-oxadiazol-2-yl)-N-(5,6-dibromo-2,3-dihydro-1H-inden-2-yl)-4-methylpyrimidin-2-amine]
– | 42.9% | Fc1cc2c(cc1F)CC(Nc1ncc(-c3nnc(N4CCC(N5CCOCC5)CC4)o3)cn1)C2 [Example 63, N-(5,6-difluoro-2,3-dihydro-1H-inden-2-yl)-5-(5-(4-morpholinopiperidin-1-yl)-1,3,4-oxadiazol-2-yl)pyrimidin-2-amine]
